ChEMBL document CHEMBL4665740, “Discovery of noscapine derivatives as potential β-tubulin inhibitors” (Bioorg Med Chem Lett, 2020)
Active and inactive are the calls of the source. No cut-off for these calls is given here.

Tests used:
[1] = tested on: MCF7; test: Cytotoxicity against human MCF7 cells assessed as mortality at 20 uM after 48 hrs by MTT assay; format: functional, cell-based
[2] = target: Tubulin beta; test: Binding affinity to CM5 chip immobilized beta tubulin (unknown origin) assessed as thermodynamic constants by SPR assay; format: protein assay, Homo sapiens
[3] = tested on: MCF7; test: Cytotoxicity against human MCF7 cells assessed as mortality at 20 uM after 48 hrs by MTT assay relative to control; format: functional

Question: COc1ccc2c(c1OC)C(=O)O[C@@H]2[C@H]1c2c(cc3c(c2OC)OCO3)CCN1Cc1cn(CC(C)(C)O)nn1 was tested. Which Activity [1] did it give?
Answer: Active

Question: COc1ccc2c(c1OC)C(=O)O[C@@H]2[C@H]1c2c(c(Br)c3c(c2OC)OCO3)CCN1Cc1cn(CC(C)(C)O)nn1 was tested. Which Activity [1] did it give?
Answer: Active

Question: For COc1ccc2c(c1OC)C(=O)O[C@@H]2[C@H]1c2c(c(Br)c3c(c2OC)OCO3)CCN1Cc1cn(-c2ccc(Cl)c(Cl)c2)nn1, which Activity [1] is on record?
Answer: Active

Question: And the Kd [2]?
Answer: 374.3 nM

Question: CCC(O)Cn1cc(CN2CCc3c(Br)c4c(c(OC)c3[C@@H]2[C@H]2OC(=O)c3c2ccc(OC)c3OC)OCO4)nn1 (some centres not stated) was tested. Which Activity [1] did it give?
Answer: Active

Question: And the Kd [2]?
Answer: 132 nM

Question: Which Activity [1] does the source give for COc1ccc(-n2cc(CN3CCc4c(Br)c5c(c(OC)c4[C@@H]3[C@H]3OC(=O)c4c3ccc(OC)c4OC)OCO5)nn2)cc1OC here?
Answer: Active

Question: Which Activity [3] does the source give for COc1ccc2c(c1OC)C(=O)O[C@@H]2[C@H]1c2c(cc3c(c2OC)OCO3)CCN1C [NOSCAPINE] here?
Answer: 20%

Question: What about the Kd [2] of the same compound?
Answer: 579 nM

Question: How did the Activity [3] turn out when COc1ccc2c(c1OC)C(=O)O[C@@H]2[C@H]1c2c(cc3c(c2OC)OCO3)CCN1Cc1cn(Cc2ccccc2)nn1 was run?
Answer: 60%

Question: What about the Kd [2] of the same compound?
Answer: 133 nM

Question: COc1ccc2c(c1OC)C(=O)O[C@@H]2[C@H]1c2c(cc3c(c2OC)OCO3)CCN1Cc1cn(-c2ccc(F)cc2)nn1 was tested. Which Activity [1] did it give?
Answer: Active

Question: And the Kd [2]?
Answer: 21.5 nM

Question: For COc1ccc2c(c1OC)C(=O)O[C@@H]2[C@H]1c2c(c(Br)c3c(c2OC)OCO3)CCN1Cc1cn(-c2ccc(F)cc2)nn1, which Activity [1] is on record?
Answer: Active

Question: How did the Activity [3] turn out when CCC(O)Cn1cc(CN2CCc3cc4c(c(OC)c3[C@@H]2[C@H]2OC(=O)c3c2ccc(OC)c3OC)OCO4)nn1 (some centres not stated) was run?
Answer: 60%

Question: With COc1ccc2c(c1OC)C(=O)O[C@@H]2[C@H]1c2c(c(Br)c3c(c2OC)OCO3)CCN1Cc1cn(-c2ccc(Br)cc2)nn1 as the compound, how does the Activity [3] read?
Answer: 60%

Question: And the Kd [2]?
Answer: 36.9 nM
